Data as given in patent publication US20230414826A1, “FIBRIN HYDROGELS” (Mayo Foundation for Medical Education and Research, priority 2020, published 2023).
In brackets after ≈: the same amount, converted by molar mass.

Legend:
[1] = Solubility point in citrate buffer; assay type: physicochemical; conditions: aqueous buffer; 1× citrate buffer (20 mM sodium citrate, 100 mM sodium chloride pH 7.4)
[2] = target: T1, fibrinogen and thrombin (clinical standard from the manufacturer) (Homo sapiens, UniProt P02671+P02675+P02679); assay: Fibrinogen clotting assay with coagulation analyzer (Clauss method), clinical fibrinogen standard; assay type: biochemical; conditions: clinical standard samples diluted in 1× citrate buffer + TB (4.58 mM), pH 7.4, 37° C.
T1 sequence (P02671 20-629 limits assumed): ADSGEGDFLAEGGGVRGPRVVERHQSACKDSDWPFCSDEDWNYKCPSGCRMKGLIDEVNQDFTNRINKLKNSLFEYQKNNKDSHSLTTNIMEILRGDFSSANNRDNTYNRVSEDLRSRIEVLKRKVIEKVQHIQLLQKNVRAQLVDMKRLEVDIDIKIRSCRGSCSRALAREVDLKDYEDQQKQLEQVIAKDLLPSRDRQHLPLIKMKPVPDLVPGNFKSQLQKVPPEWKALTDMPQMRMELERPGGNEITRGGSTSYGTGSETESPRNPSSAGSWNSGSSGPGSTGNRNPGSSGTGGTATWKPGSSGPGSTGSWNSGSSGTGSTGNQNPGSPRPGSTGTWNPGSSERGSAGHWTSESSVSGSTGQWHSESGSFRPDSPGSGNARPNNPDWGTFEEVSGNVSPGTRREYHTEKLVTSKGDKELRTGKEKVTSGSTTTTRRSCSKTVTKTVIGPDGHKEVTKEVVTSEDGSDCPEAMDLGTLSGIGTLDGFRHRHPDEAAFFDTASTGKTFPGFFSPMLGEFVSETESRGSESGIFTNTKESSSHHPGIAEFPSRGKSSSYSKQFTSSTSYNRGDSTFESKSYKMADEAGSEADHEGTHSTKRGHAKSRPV
T1 sequence (P02675 31-491): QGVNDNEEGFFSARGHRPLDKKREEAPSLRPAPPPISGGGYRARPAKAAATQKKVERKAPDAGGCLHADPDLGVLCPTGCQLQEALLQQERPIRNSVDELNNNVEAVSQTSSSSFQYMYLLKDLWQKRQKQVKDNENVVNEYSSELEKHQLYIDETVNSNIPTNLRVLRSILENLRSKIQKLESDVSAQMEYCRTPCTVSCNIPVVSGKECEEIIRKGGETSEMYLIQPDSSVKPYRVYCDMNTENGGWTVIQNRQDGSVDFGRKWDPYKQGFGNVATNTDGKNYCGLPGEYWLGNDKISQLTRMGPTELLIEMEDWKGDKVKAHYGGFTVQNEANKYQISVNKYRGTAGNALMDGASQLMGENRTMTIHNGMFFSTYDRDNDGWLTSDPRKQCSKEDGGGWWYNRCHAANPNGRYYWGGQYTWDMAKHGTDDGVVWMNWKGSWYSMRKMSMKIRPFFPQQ
T1 sequence (P02679 27-433 limits assumed): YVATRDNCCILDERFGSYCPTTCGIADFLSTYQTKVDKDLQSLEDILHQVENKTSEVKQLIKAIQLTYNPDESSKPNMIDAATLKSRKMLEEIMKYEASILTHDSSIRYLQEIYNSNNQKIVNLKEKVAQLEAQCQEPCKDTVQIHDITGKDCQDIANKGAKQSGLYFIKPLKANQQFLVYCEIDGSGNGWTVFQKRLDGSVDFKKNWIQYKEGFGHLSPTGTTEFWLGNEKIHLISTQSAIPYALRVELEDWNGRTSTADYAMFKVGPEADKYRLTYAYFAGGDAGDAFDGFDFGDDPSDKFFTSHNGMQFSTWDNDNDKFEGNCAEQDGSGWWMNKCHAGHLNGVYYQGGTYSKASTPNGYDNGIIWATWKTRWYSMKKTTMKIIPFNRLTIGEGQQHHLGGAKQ
Protocol: The effect of various chemical compounds on clotting time was determined. […] The chemical additives were added to either clinical fibrinogen standards (Stago; Parsippany NJ) or a 1:20 dilution of the Evicel Biologically Active Component 2 (Ethicon), which is a fibrinogen solution (60 mg/mL) and served as the various samples. The same lot of BAC2 was used within each experiment to minimize lot-lot variability.
The Clauss method was used to measure fibrin clotting time. The clotting assay was performed using the Stago STart® Coagulation Analyzer (Stago; Parsippany, NJ) per manufacturer's protocol. The Stago STart uses a mechanical, viscosity-based detection of clotting, independent of sample color and turbidity. Per the protocol, samples were diluted 1:20 in Owren-Koller buffer (Stago) and allowed to equilibrate for 5 minutes at 37° C. Each sample was loaded in a cuvette with a magnetic bead.
In efforts to improve the visibility of fibrin gels during surgical implantation, it was observed that the inclusion of TB in the gelation mixture improved handling of the liquid phase of the gelation reaction. […] A coagulation analyzer is a specialized clinical instrument that is used to quantify fibrinogen concentrations in patient blood samples via the Clauss Method (Clauss, Acta Haematol., 17:237-46 (1957)). […]

With Cc1cc(-c2ccc(/N=N/c3c(S(=O)(=O)O)cc4cc(S(=O)(=O)O)cc(N)c4c3O)c(C)c2)ccc1/N=N/c1c(S(=O)(=O)O)cc2cc(S(=O)(=O)O)cc(N)c2c1O [TB, Trypan Blue] the solubility [1] was 4.58 mM (≈ 4000 µg/mL) and the “gelation time (clotting time)” value [2] was 14.6 ± 1.5 s.
